From patent US9441012B2, “Fluorinated epoxyketone-based compounds and uses thereof as proteasome inhibitors” (FLUORINOV PHARMA INC., priority 2012, dated 2016)

Legend:
Assay in all cases: NCI 60 human tumor cell line screen (SRB)
Type in all cases: cell-based
HOP-92 = HOP-92 (Non-Small Cell Lung Cancer); 48 h
Excerpt: (§1) Representative compounds of Formula I were screened using the National Cancer Institute (NCI) screening panel, which consists of a panel of 60 different human tumor cell lines, representing leukemia [CCRF-CEM, HL-60 (TB), K-562, MOLT-4, SR], melanoma [LOX IMVI, MALME-3M, M14, SMDA-MB-435, SK-MEL-2, SK-MEL-28, SK-MEL-5, UACC-257 and UACC-62] and cancers of the lung [A549/ATCC, EKVX, HOP-62, HOP-93, NCI-H226, NCI-H23, NCI-H322M, NCI-H460], colon [COLO 205, HCT-116, HCT-15, HT29, KM12, SW-620], brain [SF-268, SF-295, SF-539, SNB-19, SNB-75, U251], ovary [IGROV1, OVCAR-3, OVCAR-4, OVCAR-5, OVCAR-8, NCI/ADR-RES, SK-OV-3], breast [MCF7, MDA-MB-231, BT-549, T-47D, MDA-MB-468], prostate [PC-3, DU-145], and renal[786-0, A498, ACHN, CAKI-1, RXF-393, SN12C, TK-10, UO-31] cancers.
(§2) After 24 h, two plates of each cell line are fixed in situ with TCA, to represent a measurement of the cell population for each cell line at the time of drug addition (Tz). Experimental drugs are solubilised in dimethyl sulfoxide at 400-fold the desired final maximum test concentration and stored frozen prior to use. At the time of drug addition, an aliquot of frozen concentrate is thawed and diluted to twice the desired final maximum test concentration with complete medium containing 50 μg/ml gentamicin. Additional four, 10-fold or ½ log serial dilutions are made to provide a total of five drug concentrations plus control. Aliquots of 100 μl of these different drug dilutions are added to the appropriate microtiter wells already containing 100 μl of medium, resulting in the required final drug concentrations.
(§3) Following drug addition, the plates are incubated for an additional 48 h at 37° C., 5% CO2, 95% air, and 100% relative humidity. For adherent cells, the assay is terminated by the addition of cold TCA (trichloroacetic acid). Cells are fixed in situ by the gentle addition of 50 μl of cold 50% (w/v) TCA (final concentration, 10% TCA) and incubated for 60 minutes at 4° C. The supernatant is discarded, and the plates are washed five times with tap water and air dried. Sulforhodamine B (SRB) solution (100 μl) at 0.4% (w/v) in 1% acetic acid is added to each well, and plates are incubated for 10 minutes at room temperature. After staining, unbound dye is removed by washing five times with 1% acetic acid and the plates are air dried. Bound stain is subsequently solubilised with 10 mM trizma base, and the absorbance is read on an automated plate reader at a wavelength of 515 nm. For suspension cells, the methodology is the same except that the assay is terminated by fixing settled cells at the bottom of the wells by gently adding 50 μl of 80% TCA (final concentration, 16% TCA). Using the seven absorbance measurements [time zero, (Tz), control growth, (C), and test growth in the presence of drug at the five concentration levels (Ti)], the percentage growth is calculated at each of the drug concentration levels. Percentage growth inhibition is calculated as: [(Ti−Tz)/(C−Tz)]×100 for concentrations in which Ti>/=Tz and [(Ti−Tz)/Tz]×100 for concentrations in which Ti<Tz.
(§4) Three dose response parameters are calculated for each experimental agent. Growth inhibition of 50% (GI50) is calculated from [(Ti−Tz)/(C−Tz)]100=50, which is the drug concentration resulting in a 50% reduction in the net protein increase (as measured by SRB staining) in control cells during the drug incubation. The drug concentration resulting in total growth inhibition (TGI) is calculated from Ti=Tz. The LC50 (concentration of drug resulting in a 50% reduction in the measured protein at the end of the drug treatment as compared to that at the beginning) indicating a net loss of cells following treatment is calculated from [(Ti−Tz)/Tz]×100=−50. Values are calculated for each of these three parameters if the level of activity is reached. However, if the effect is not reached or is exceeded, the value for that parameter is expressed as greater or less than the maximum or minimum concentration tested.

SK-MEL-5 = SK-MEL-5 (Melanoma); 48 h
Excerpt: as §1, §2, §3, §4

SNB-75 = SNB-75 (CNS Cancer); 48 h
Excerpt: as §1, §2, §3, §4

NCI-H23 = NCI-H23 (Non-Small Cell Lung Cancer); 48 h
Excerpt: as §1, §2, §3, §4

MALME-3M = MALME-3M (Melanoma); 48 h
Excerpt: as §1, §2, §3, §4

SF-539 = SF-539 (CNS Cancer); 48 h
Excerpt: as §1, §2, §3, §4

NCI-H226 = NCI-H226 (Non-Small Cell Lung Cancer); 48 h
Excerpt: as §1, §2, §3, §4

DU-145 = DU-145 (Prostate Cancer); 48 h
Excerpt: as §1, §2, §3, §4

SK-MEL-28 = SK-MEL-28 (Melanoma); 48 h
Excerpt: as §1, §2, §3, §4

MDA-MB-435 = MDA-MB-435 (Melanoma); 48 h
Excerpt: as §1, §2, §3, §4

BT-549 = BT-549 (Breast Cancer); 48 h
Excerpt: as §1, §2, §3, §4

ACHN = ACHN (Renal Cancer); 48 h
Excerpt: as §1, §2, §3, §4

| SMILES | Log10GI50 (HOP-92) | Log10LC50 (HOP-92) | Log10TGI50 (HOP-92) | Log10GI50 (SK-MEL-5) | Log10LC50 (SK-MEL-5) | Log10TGI50 (SK-MEL-5) | Log10GI50 (SNB-75) | Log10LC50 (SNB-75) | Log10TGI50 (SNB-75) | Log10GI50 (NCI-H23) | Log10LC50 (NCI-H23) | Log10TGI50 (NCI-H23) | Log10GI50 (MALME-3M) | Log10LC50 (MALME-3M) | Log10TGI50 (MALME-3M) | Log10GI50 (SF-539) | Log10LC50 (SF-539) | Log10TGI50 (SF-539) | Log10GI50 (NCI-H226) | Log10TGI50 (NCI-H226) | other results |
| --- | --- | --- | --- | --- | --- | --- | --- | --- | --- | --- | --- | --- | --- | --- | --- | --- | --- | --- | --- | --- | --- |
| Cc1ncc(C(=O)N[C@@H](COC(F)F)C(=O)N[C@@H](COC(F)F)C(=O)N[C@@H](Cc2ccccc2)C(=O)[C@@]2(C)CO2)s1 [Example 1, 2-methyl-thiazole-5-carboxylic acid ((S)-1-{(S)-1-[(S)-1-benzyl-2-((R)-2-methyloxiranyl)-2-oxo-ethylcarbamoyl]-2-difluoromethoxyethylcarbamoyl}-2-difluoromethoxyethyl)-amide] | −6.23 | −4.39 | −5.40 | −7.15 | −5.47 | −6.34 | −6.81 | >−4.00 | −6.24 | −6.85 | −5.27 | −5.92 | −7.30 | >−4.00 | −6.38 | −7.15 | −4.27 | −6.44 | −7.44 | −6.84 | Log10GI50 (DU-145): −6.58; Log10LC50 (DU-145): −5.02; Log10TGI50 (DU-145): −5.64; Log10GI50 (SK-MEL-28): −6.85; Log10LC50 (SK-MEL-28): −4.69; Log10TGI50 (SK-MEL-28): −6.12; Log10GI50 (MDA-MB-435): −7.43; Log10LC50 (MDA-MB-435): >−4.00; Log10TGI50 (MDA-MB-435): −6.74; Log10GI50 (BT-549): −7.49; Log10LC50 (BT-549): −5.74; Log10TGI50 (BT-549): −6.87; Log10GI50 (ACHN): −6.53; Log10LC50 (ACHN): >−4.00; Log10TGI50 (ACHN): −4.81 |
| CC(C)C[C@H](NC(=O)[C@H](Cc1ccccc1)NC(=O)[C@H](COC(F)F)NC(=O)CN1CCOCC1)C(=O)[C@@]1(C)CO1 [Example 25, (2S)-2-[[(2S)-3-(difluoromethoxy)-2-[(2-morpholinoacetyl)amino]propanoyl]amino]-N-[(1S)-3-methyl-1-[(2R)-2-methyloxirane-2-carbonyl]butyl]-3-phenyl-propanamide] | −7.65 | −6.35 | −7.16 | −7.60 | −6.49 | −7.17 | −7.71 | −6.35 | −7.24 | −7.62 | −5.64 | −7.13 | −7.51 | >−4.00 | −6.64 | −7.63 | −6.48 | −7.26 | −7.77 | −7.43 | Log10LC50 (NCI-H226): −7.10; Log10GI50 (DU-145): −7.27; Log10LC50 (DU-145): >−4.00; Log10TGI50 (DU-145): −5.32; Log10GI50 (SK-MEL-28): −7.38; Log10LC50 (SK-MEL-28): −4.82; Log10TGI50 (SK-MEL-28): −6.69; Log10GI50 (MDA-MB-435): −7.75; Log10LC50 (MDA-MB-435): −7.10; Log10TGI50 (MDA-MB-435): −7.42; Log10GI50 (BT-549): −7.73; Log10LC50 (BT-549): −7.05; Log10TGI50 (BT-549): −7.39; Log10GI50 (ACHN): −7.01; Log10LC50 (ACHN): >−4.00; Log10TGI50 (ACHN): >−4.00 |
| C[C@]1(C(=O)[C@H](Cc2ccccc2)NC(=O)[C@H](COC(F)F)NC(=O)[C@H](COC(F)F)NC(=O)CN2CCOCC2)CO1 [Example 26, (S)-N-{(S)-1-[(S)-1-Benzyl-2-((R)-2-methyl-oxiranyl)-2-oxo-ethylcarbamoyl]-2-difluoromethoxyethyl}-3-difluoromethoxy-2-(2-morpholin-4-yl-acetylamino)-propio-namide] | −7.65 | −6.35 | −7.16 | −7.60 | −6.49 | −7.17 | −7.71 | −6.35 | −7.24 | −7.62 | −5.64 | −7.13 | −7.51 | >−4.00 | −6.64 | −7.63 | −6.48 | −7.26 | −7.77 | −7.43 | Log10LC50 (NCI-H226): −7.10; Log10GI50 (DU-145): −7.27; Log10LC50 (DU-145): >−4.00; Log10TGI50 (DU-145): −5.32; Log10GI50 (SK-MEL-28): −7.38; Log10LC50 (SK-MEL-28): −4.82; Log10TGI50 (SK-MEL-28): −6.69; Log10GI50 (MDA-MB-435): −7.75; Log10LC50 (MDA-MB-435): −7.10; Log10TGI50 (MDA-MB-435): −7.42; Log10GI50 (BT-549): −7.73; Log10LC50 (BT-549): −7.05; Log10TGI50 (BT-549): −7.39; Log10GI50 (ACHN): −7.01; Log10LC50 (ACHN): >−4.00; Log10TGI50 (ACHN): >−4.00 |
| C[C@]1(C(=O)[C@H](Cc2ccccc2)NC(=O)[C@H](Cc2ccccc2)NC(=O)[C@H](COC(F)F)NC(=O)CN2CCOCC2)CO1 [Example 29] | −7.18 | −6.03 | −6.55 | −7.22 | −6.20 | −6.66 | −6.83 | −5.96 | −6.41 | −7.21 | >−4.00 | −5.55 | −6.69 | >−4.00 | −6.15 | −7.39 | −4.49 | −6.76 | −7.64 | −7.24 | Log10LC50 (NCI-H226): −6.51; Log10GI50 (DU-145): −7.00; Log10LC50 (DU-145): −4.09; Log10TGI50 (DU-145): −5.05; Log10GI50 (SK-MEL-28): −7.13; Log10LC50 (SK-MEL-28): >−4.00; Log10TGI50 (SK-MEL-28): −6.34; Log10GI50 (MDA-MB-435): −7.63; Log10TGI50 (MDA-MB-435): −7.17; Log10GI50 (BT-549): −7.26; Log10LC50 (BT-549): −4.94; Log10TGI50 (BT-549): −6.59; Log10GI50 (ACHN): −6.59; Log10LC50 (ACHN): >−4.00; Log10TGI50 (ACHN): >−4.00 |
